Data: patent publication US8575116B1, “Polyacetylenic compounds for protecting against pancreatic islet atrophy” (Academia Sinica, priority 2010, dated 2013)

Tests used:
db/db mice [1] = assay: Glycosylated HbA1c in db/db mice after long-term treatment; type: in vivo, mouse
Method: (§1) FIGS. 1A-F show the anti-diabetic effects of cytopiloyne in db/db mice during long-term treatment. (A) Chemical structure of cytopiloyne (2-β-D-glucopyranosyloxy-1-hydroxytrideca-5,7,9,11-tetrayne). (B) Four groups of 6-to-8-week-old diabetic db/db mice were tube-fed with vehicle, cytopiloyne (CP, 0.5 and 2.5 mgkg^−1 day^−1) or glimepiride (GLM, 2.5 mgkg^−1 day^−1) from 0 to 42 days post-treatment. Blood glucose (BG) levels in these mice were measured. (C) Blood insulin levels from the mice of FIG. 1B. (D) IPGTT was performed in the db/db mice of FIG. 1B on day 0, 28 and 42, and blood glucose levels were monitored for 3.5 h. (E) The percentage of glycosylated HbAlc of whole blood from the mice of FIG. 1B on day 0 and 42. (F) Pancreata of 8- and 16-week-old db/db males, which had received the same treatment as FIG. 1B for 2 (images a-h) and 10 (images i-p) weeks, were stained with hematoxylin and eosin (H&E, images a, c, e, g, i, k, m and o) or hematoxylin and anti-insulin (H&I, images b, d, f, h, j, l, n and p). The arrowheads indicate pancreatic islets. Scale bars, 200 μm. Results from 3 independent experiments are expressed as mean±SEM, and P<0.05 was considered to be statistically significant (*). The number of mice (n) is indicated in parentheses.
(§2) After 0.5 h, the levels of postprandial blood sugar and insulin from the mice were monitored for additional 4 h. For continued administration, diabetic db/db males were grouped and tube-fed with vehicle, cytopiloyne (0.5 or 2.5 mgkg^−1 day^−1) or glimepiride (2.5 mg kg^−1 day^−1) for the indicated time, while levels of blood sugar, insulin, and glycosylated HbA1c, and glucose tolerance in these mice were determined. To evaluate the prophylaxis of diabetes, diabetes-free db/db mice at 4 weeks of age were tube-fed with vehicle or cytopiloyne (CP, 0.5 mgkg^−1), once a day, for 4 weeks. Unless indicated otherwise, the mice were fasted for 16 h, then Postprandial blood glucose and insulin in these mice were measured.
(§3) Glucose levels in mouse blood samples were measured using an Elite® glucometer (Bayer, Pittsburgh, Pa., USA). Insulin levels in blood samples or islet cell supernatants were determined by ELISA assays (Mercodia, Uppsala, Sweden). The levels of glycosylated HbA1c in mouse blood samples were measured using DCA 2000 analyzer (Bayer, Pittsburgh, Pa., USA).

[2] = Body weight of db/db mice during treatment; type: in vivo, mouse
Method: Tables 3 and 4 show the effects of cytopiloyne on body weight and food intake in db/db mice, respectively. Diabetic db/db mice at 6 to 8 weeks of age were allowed free access to food. These mice were treated with vehicle, glimepiride (GLM, 2.5 mg/kg/day), or cytopiloyne (CP, 0.5 and 2.5 mg/kg/day). Mean body weight and food intake of each group were measured from 0 to 6 weeks post-treatment. The number of mice (n) is indicated in parentheses.

adiponectin = assay: Real-time RT-PCR of adiponectin mRNA relative to GAPDH in 3T3-L1 cells; type: cell-based, mouse
db/db mice [3] = assay: Blood glucose after a single oral dose in fed diabetic db/db mice; type: in vivo, mouse; details: for postprandial blood glucose levels, effect in words: single dose, cytopiloyne 0.1, 0.5 and 2.5 mgkg^−1, glimepiride 2.5 mgkg^−1, diabetic db/db mice; for Blood glucose level: fed db/db mice
Method: as §2, §3
Diabetic db/db mice aged 6 to 8 weeks were grouped, fasted for 12 h, allowed free access to food for 2 h, and removed from food. One half hour after food removal was set as time 0. Postprandial blood was collected from the tail vein of the mice, tube-fed with vehicle, glimepiride (GLM) at 2.5 mg/kg/day and cytopiloyne (CP) at 0.1, 0.5 and 2.5 mg/kg/day. Blood samples were collected at the indicated time intervals (0, 1, 2 and 4 h). The blood glucose levels were determined using a glucometer. The number of mice tested (n) is indicated in parentheses in the first column.

[4] = test system: pancreatic islets of db/db mice; assay: Pancreatic islet histology/immunohistochemistry in db/db mice; type: in vivo, mouse; details: for pancreatic islet structure after long-term treatment: db/db mice 12 to 14 weeks old, cytopiloyne 0.5 and 2.5, glimepiride 2.5 mgkg^−1 day^−1 (FIG. 1F)
Method: as §1
Pancreata from db/db males with continuous drug administration were snap frozen in OCT™ compound and stained with hematoxylin and eosin or anti-insulin antibody, followed by diaminobenzidine tetrahydrochloride development. Multiple parallel sections of each pancreas were analyzed by light microscopy.

[5] = test system: adipocyte protein 2 (aP2); assay: Real-time RT-PCR of aP2 mRNA relative to GAPDH in 3T3-L1 cells; type: cell-based, mouse
[6] = test system: insulin mRNA in rat primary pancreatic islet cells; assay: Real-time RT-PCR of insulin mRNA relative to L13 in rat pancreatic islet cells; type: cell-based
[7] = 2.5 mgkg^−1 day^−1, day 42, db/db mice 12 to 14 weeks of age (untreated 7.3%)
[8] = 2.5 mgkg^−1 day^−1, versus untreated db/db mice
[9] = single oral dose 2.5 mg/kg, 0 h
[10] = single oral dose 2.5 mg/kg, 1 h
[11] = single oral dose 2.5 mg/kg, 2 h
[12] = single oral dose 2.5 mg/kg, 4 h

CC#CC#CC#CC#CCCC(CO)O[C@@H]1O[C@H](CO)[C@@H](O)[C@H](O)[C@H]1O (stereo partly drawn) [cytopiloyne, 2-β-D-glucopyranosyloxy-1-hydroxytrideca-5,7,9,11-tetrayne]
HbA1c glycosylated in the blood (db/db mice [1]; 0.5 mgkg^−1 day^−1, day 42, db/db mice 12 to 14 weeks of age (untreated 7.3%)): 6%
decrease of glycosylated HbA1c (db/db mice [1]; 0.5 mgkg^−1 day^−1, versus untreated db/db mice): 1.3%
HbA1c glycosylated in the blood (db/db mice [1]; [7]): 5.6%
decrease of glycosylated HbA1c (db/db mice [1]; [8]): 1.7%
Mean body weight ([2]; 0.5 mg/kg/day, week 0): 28.2 ± 3.0 g/mouse
Mean body weight ([2]; 0.5 mg/kg/day, week 1): 29.7 ± 3.1 g/mouse
Mean body weight ([2]; 0.5 mg/kg/day, week 2): 32.3 ± 3.3 g/mouse
Mean body weight ([2]; 0.5 mg/kg/day, week 4): 34.1 ± 2.9 g/mouse
Mean body weight ([2]; 0.5 mg/kg/day, week 6): 34.8 ± 2.8 g/mouse
Mean body weight ([2]; 2.5 mg/kg/day, week 0): 27.1 ± 2.4 g/mouse
Mean body weight ([2]; 2.5 mg/kg/day, week 1): 30.0 ± 2.5 g/mouse
Mean body weight ([2]; 2.5 mg/kg/day, week 2): 31.7 ± 1.5 g/mouse
Mean body weight ([2]; 2.5 mg/kg/day, week 4): 33.3 ± 4.1 g/mouse
Mean body weight ([2]; 2.5 mg/kg/day, week 6): 36.4 ± 3.7 g/mouse
body weight compared to control mice, in words ([2]; 6-week-treatment): did not significantly increase body weight
adiponectin expression (adiponectin; 5, 25 and 50 μM, 3T3-L1 cells): slight reduction in adiponectin expression
postprandial blood glucose levels, effect in words (db/db mice [3]): significantly reduced postprandial blood glucose levels
Blood glucose level (db/db mice [3]; single oral dose 0.1 mg/kg, 0 h): 373 ± 6 mg/dL
Blood glucose level (db/db mice [3]; single oral dose 0.1 mg/kg, 1 h): 267 ± 12 mg/dL
Blood glucose level (db/db mice [3]; single oral dose 0.1 mg/kg, 2 h): 204 ± 17 mg/dL
Blood glucose level (db/db mice [3]; single oral dose 0.1 mg/kg, 4 h): 158 ± 18 mg/dL
Blood glucose level (db/db mice [3]; single oral dose 0.5 mg/kg, 0 h): 369 ± 27 mg/dL
Blood glucose level (db/db mice [3]; single oral dose 0.5 mg/kg, 1 h): 214 ± 15 mg/dL
Blood glucose level (db/db mice [3]; single oral dose 0.5 mg/kg, 2 h): 163 ± 8 mg/dL
Blood glucose level (db/db mice [3]; single oral dose 0.5 mg/kg, 4 h): 132 ± 11 mg/dL
Blood glucose level (db/db mice [3]; [9]): 365 ± 9 mg/dL
Blood glucose level (db/db mice [3]; [10]): 207 ± 11 mg/dL
Blood glucose level (db/db mice [3]; [11]): 147 ± 12 mg/dL
Blood glucose level (db/db mice [3]; [12]): 129 ± 11 mg/dL
pancreatic islet structure after long-term treatment [4]: much greater preservation of islet structure
protection against islet atrophy ([4]; low dose 0.5 mgkg^−1 day^−1, db/db mice (FIG. 1F)): protected against islet atrophy
aP2 expression ([5]; 5, 25 and 50 μM, 3T3-L1 cells): little effect on aP2 expression
up-regulation of insulin transcription relative to that by 16.7 mM glucose ([6]; 28 μM (FIGS. 4A-B)): 40%
insulin mRNA relative to L13 mRNA, fold ([6]; 28 μM, rat islet cells, 24 h): around 2 times

CCC1=C(C)CN(C(=O)NCCc2ccc(S(=O)(=O)NC(=O)N[C@H]3CC[C@H](C)CC3)cc2)C1=O [glimepiride, reference compound]
HbA1c glycosylated in the blood (db/db mice [1]; [7]): 6.3%
decrease of glycosylated HbA1c (db/db mice [1]; [8]): 1%
Mean body weight ([2]; 2.5 mg/kg/day, week 0): 26.9 ± 1.2 g/mouse
Mean body weight ([2]; 2.5 mg/kg/day, week 1): 30.3 ± 2.7 g/mouse
Mean body weight ([2]; 2.5 mg/kg/day, week 2): 30.7 ± 3.0 g/mouse
Mean body weight ([2]; 2.5 mg/kg/day, week 4): 35.2 ± 1.8 g/mouse
Mean body weight ([2]; 2.5 mg/kg/day, week 6): 36.3 ± 2.1 g/mouse
adiponectin expression level, times control levels (adiponectin; mouse, 8 days, 10 μM): 9 times
postprandial blood glucose levels, effect in words (db/db mice [3]): significantly reduced postprandial blood glucose levels
Blood glucose level (db/db mice [3]; [9]): 378 ± 9 mg/dL
Blood glucose level (db/db mice [3]; [10]): 237 ± 16 mg/dL
Blood glucose level (db/db mice [3]; [11]): 178 ± 20 mg/dL
Blood glucose level (db/db mice [3]; [12]): 187 ± 6 mg/dL
pancreatic islet structure after long-term treatment [4]: sporadic islets
pancreatic islet structure after long-term treatment ([4]; listed as Glimepiride): failed to provide such a protection
aP2 expression, times of the control ([5]; mouse, 8 days, 10 μM): 31 times
insulin mRNA relative to L13 mRNA ([6]; 10 μM, rat islet cells, 24 h): slightly decreased insulin transcription
